How the values were obtained:
Dihydrofolate reductase [1] = molecular target: T1, Dihydrofolate reductase (Pneumocystis carinii, UniProt P16184)
T1 sequence (P16184 whole entry): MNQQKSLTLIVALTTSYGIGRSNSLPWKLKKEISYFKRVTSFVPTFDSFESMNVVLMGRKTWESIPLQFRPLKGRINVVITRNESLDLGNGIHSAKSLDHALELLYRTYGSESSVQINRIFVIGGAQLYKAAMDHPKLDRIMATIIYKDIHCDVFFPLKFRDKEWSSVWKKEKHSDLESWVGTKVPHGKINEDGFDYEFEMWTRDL
Description: Inhibitory activity against Pneumocystis carinii dihydrofolate reductase (in 90 uM dihydrofolic acid)

Dihydrofolate reductase [2] = molecular target: T2, Dihydrofolate reductase (Rattus norvegicus, UniProt Q920D2)
T2 sequence (Q920D2 whole entry): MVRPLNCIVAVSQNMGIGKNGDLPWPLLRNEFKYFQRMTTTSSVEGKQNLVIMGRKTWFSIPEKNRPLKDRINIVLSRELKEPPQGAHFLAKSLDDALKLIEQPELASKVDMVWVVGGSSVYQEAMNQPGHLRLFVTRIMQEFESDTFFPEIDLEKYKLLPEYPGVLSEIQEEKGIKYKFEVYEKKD
Description: Inhibitory activity against rat liver dihydrofolate reductase (in 90 uM dihydrofolic acid)

[3] = molecular target: T3, Bifunctional dihydrofolate reductase-thymidylate synthase (Toxoplasma gondii, UniProt Q07422)
T3 sequence (Q07422 whole entry): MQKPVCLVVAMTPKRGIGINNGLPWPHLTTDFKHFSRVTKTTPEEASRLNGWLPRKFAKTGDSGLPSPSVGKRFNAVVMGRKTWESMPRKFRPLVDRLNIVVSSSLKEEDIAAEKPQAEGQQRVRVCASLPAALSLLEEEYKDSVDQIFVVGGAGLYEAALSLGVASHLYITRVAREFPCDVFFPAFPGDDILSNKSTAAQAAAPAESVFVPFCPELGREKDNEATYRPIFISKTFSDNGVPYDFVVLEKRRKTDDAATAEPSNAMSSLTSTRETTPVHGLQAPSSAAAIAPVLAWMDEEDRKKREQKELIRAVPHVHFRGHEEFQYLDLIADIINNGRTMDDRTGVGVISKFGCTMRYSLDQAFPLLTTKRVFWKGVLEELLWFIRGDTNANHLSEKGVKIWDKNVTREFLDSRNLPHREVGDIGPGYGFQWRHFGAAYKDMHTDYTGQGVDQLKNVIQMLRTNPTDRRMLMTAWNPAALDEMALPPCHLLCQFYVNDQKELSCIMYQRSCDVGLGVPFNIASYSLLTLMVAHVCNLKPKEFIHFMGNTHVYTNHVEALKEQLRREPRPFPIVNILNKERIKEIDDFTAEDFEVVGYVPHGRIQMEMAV
Description: Inhibitory activity against Toxoplasma gondii dihydrofolate reductase (in 90 uM dihydrofolic acid)

Dihydrofolate reductase [4] = molecular target: T4, Dihydrofolate reductase (Homo sapiens, UniProt P00374); experiment: Inhibitory activity against recombinant human dihydrofolate reductase(in 50 uM dihydrofolic acid)
T4 sequence (P00374 whole entry): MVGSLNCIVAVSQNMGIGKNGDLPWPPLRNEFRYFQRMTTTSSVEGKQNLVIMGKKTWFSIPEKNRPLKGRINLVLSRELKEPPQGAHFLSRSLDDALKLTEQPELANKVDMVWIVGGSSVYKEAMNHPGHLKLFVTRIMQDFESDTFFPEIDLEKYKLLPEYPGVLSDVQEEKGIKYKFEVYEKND

Dihydrofolate reductase [5] = molecular target: Dihydrofolate reductase (Lactobacillus casei, UniProt P00381); experiment: Inhibitory activity against recombinant lc dihydrofolate reductase(in 50 uM dihydrofolic acid); set-up: species or system Lacticaseibacillus casei
Dihydrofolate reductase [6] = molecular target: T5, Dihydrofolate reductase (Escherichia coli, UniProt P0ABQ4); experiment: Inhibitory activity against recombinant ec dihydrofolate reductase(in 50 uM dihydrofolic acid)
T5 sequence (P0ABQ4 whole entry): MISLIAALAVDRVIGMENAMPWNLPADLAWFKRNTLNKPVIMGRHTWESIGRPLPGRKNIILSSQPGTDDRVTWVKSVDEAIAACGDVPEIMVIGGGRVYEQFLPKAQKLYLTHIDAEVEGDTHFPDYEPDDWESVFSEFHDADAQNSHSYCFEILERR

[7] = molecular target: T3, Bifunctional dihydrofolate reductase-thymidylate synthase; remark: listed apart in the source
Description: Inhibitory activity against Toxoplasma gondii dihydrofolate reductase (in 50 uM dihydrofolic acid)

Chain of Dihydrofolate reductase (Lactobacillus casei, UniProt P00381) (P00381 whole entry): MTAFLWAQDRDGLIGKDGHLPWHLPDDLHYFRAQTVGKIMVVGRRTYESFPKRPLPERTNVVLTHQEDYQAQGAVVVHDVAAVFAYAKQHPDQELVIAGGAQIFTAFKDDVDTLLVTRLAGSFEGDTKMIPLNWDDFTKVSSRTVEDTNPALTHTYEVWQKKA

Structure (SMILES)	IC50 (Dihydrofolate reductase [1])	IC50 (Dihydrofolate reductase [2])	IC50 [3]	IC50 (Dihydrofolate reductase [4])	IC50 (Dihydrofolate reductase [5])	IC50 (Dihydrofolate reductase [6])	IC50 [7]
COc1cc(OC)c(OC)cc1CNc1cnc2nc(N)nc(N)c2c1	5500 nM	1100 nM	480 nM	–	–	–	–
Nc1nc(N)c2cc(NCc3ccccc3)cnc2n1	–	2100 nM	520 nM	6200 nM	–	–	–
COc1ccc(OC)c(CN(C)c2cnc3nc(N)nc(N)c3c2)c1	–	57 nM	–	8500 nM	5700 nM	140 nM	–
COc1cc(CN(C)c2cnc3nc(N)nc(N)c3c2)cc(OC)c1OC	61 nM	33 nM	14 nM	–	–	–	–
COc1ccc(CNc2cnc3nc(N)nc(N)c3c2)c2ccccc12	8200 nM	430 nM	380 nM	–	–	–	–
COc1cc(CNc2cnc3nc(N)nc(N)c3c2)cc(OC)c1	–	–	1200 nM	–	–	–	–
COc1cc(C(C)Nc2cnc3nc(N)nc(N)c3c2)cc(OC)c1OC (stereo unspecified)	9200 nM	1270 nM	194 nM	–	–	–	–
Nc1nc(N)c2cc(NCc3cccc4ccccc34)cnc2n1	3900 nM	240 nM	980 nM	–	–	–	–
COc1ccc(OC)c(CNc2cnc3nc(N)nc(N)c3c2)c1	–	–	310 nM	–	–	–	500 nM
COc1cc(OC)c(CNc2cnc3nc(N)nc(N)c3c2)c(OC)c1	–	1200 nM	230 nM	–	–	–	–
COc1ccc(CNc2cnc3nc(N)nc(N)c3c2)cc1OC	4800 nM	1500 nM	730 nM	–	–	–	–
CN(Cc1ccccc1)c1cnc2nc(N)nc(N)c2c1	68 nM	140 nM	32 nM	700 nM	–	–	35 nM
Nc1nc(N)c2cc(NCCc3ccccc3)cnc2n1	1940 nM	280 nM	4450 nM	–	–	–	–
Nc1nc(N)c2cc(NCc3ccc(Oc4ccccc4)cc3)cnc2n1	24300 nM	2900 nM	3700 nM	–	–	–	–
COc1cc(CNc2cnc3nc(N)nc(N)c3c2)cc(OC)c1OC	–	–	350 nM	–	–	–	1300 nM
COc1ccc2c(CNc3cnc4nc(N)nc(N)c4c3)cccc2c1	15400 nM	370 nM	710 nM	–	–	–	–
CN(Cc1ccc(C(=O)NC(=O)[C@H](N)CCC(=O)O)cc1)c1cnc2nc(N)nc(N)c2c1	–	–	–	650 nM	170 nM	13 nM	–
CN(CCc1ccccc1)c1cnc2nc(N)nc(N)c2c1	1800 nM	1400 nM	920 nM	–	–	–	–
COc1ccc(CN(C)c2cnc3nc(N)nc(N)c3c2)c(OC)c1OC	79 nM	30 nM	26 nM	530 nM	–	–	26 nM
COc1ccc(CNc2cnc3nc(N)nc(N)c3c2)c(OC)c1OC	15300 nM	3240 nM	670 nM	–	–	–	–
COc1cc(CN(C)c2cnc3nc(N)nc(N)c3c2)cc(OC)c1	–	72 nM	31 nM	2900 nM	–	–	29 nM
CCOc1cc(Cc2cnc(N)nc2N)cc(OCC)c1-n1cccc1 [EPIROPRIM]	–	73000 nM	470 nM	–	–	–	–

From ChEMBL document CHEMBL1129539, “2,4-diamino-5-deaza-6-substituted pyrido[2,3-d]pyrimidine antifolates as potent and selective nonclassical inhibitors of dihydrofolate reductases” (J Med Chem, 1996)
